Source: ChEMBL document CHEMBL3758091, “Identification of N-(6-mercaptohexyl)-3-(4-pyridyl)-1H-pyrazole-5-carboxamide and its disulfide prodrug as potent histone deacetylase inhibitors with in vitro and in vivo anti-tumor efficacy” (Eur J Med Chem, 2016)

Key:
Histone deacetylase = assay: Inhibition of HDAC in human HeLa cell nuclear extract using Boc-Lys(Ac)-AMC as substrate preincubated for 15 mins followed by substrate addition measured after 60 mins by fluorescence-based assay
Histone deacetylase 1 [1] = biological target: T1, Histone deacetylase 1 (Homo sapiens, UniProt Q13547); assay: Inhibition of recombinant human HDAC1 using Boc-Lys(Ac)-AMC as substrate preincubated for 15 mins followed by substrate addition measured after 60 mins by fluorescence-based assay
T1 sequence (Q13547 whole entry): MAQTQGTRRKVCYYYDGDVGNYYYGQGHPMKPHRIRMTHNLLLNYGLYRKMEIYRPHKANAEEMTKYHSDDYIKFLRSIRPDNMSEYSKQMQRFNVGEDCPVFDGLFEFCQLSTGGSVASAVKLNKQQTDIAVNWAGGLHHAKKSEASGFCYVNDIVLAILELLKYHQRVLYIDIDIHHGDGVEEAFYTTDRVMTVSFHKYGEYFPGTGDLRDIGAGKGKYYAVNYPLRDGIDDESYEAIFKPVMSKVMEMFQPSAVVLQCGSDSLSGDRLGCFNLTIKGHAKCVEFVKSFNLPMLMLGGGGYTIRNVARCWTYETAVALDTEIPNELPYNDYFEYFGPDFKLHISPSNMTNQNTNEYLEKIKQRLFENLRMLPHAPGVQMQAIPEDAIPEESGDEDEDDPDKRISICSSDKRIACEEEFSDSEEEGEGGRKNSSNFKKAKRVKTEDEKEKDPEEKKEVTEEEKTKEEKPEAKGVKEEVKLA

[2] = biological target: T2, Protein deacetylase HDAC6 (Homo sapiens, UniProt Q9UBN7); assay: Inhibition of recombinant human HDAC6 using Boc-Lys(Ac)-AMC as substrate preincubated for 15 mins followed by substrate addition measured after 60 mins by fluorescence-based assay
T2 sequence (Q9UBN7 whole entry): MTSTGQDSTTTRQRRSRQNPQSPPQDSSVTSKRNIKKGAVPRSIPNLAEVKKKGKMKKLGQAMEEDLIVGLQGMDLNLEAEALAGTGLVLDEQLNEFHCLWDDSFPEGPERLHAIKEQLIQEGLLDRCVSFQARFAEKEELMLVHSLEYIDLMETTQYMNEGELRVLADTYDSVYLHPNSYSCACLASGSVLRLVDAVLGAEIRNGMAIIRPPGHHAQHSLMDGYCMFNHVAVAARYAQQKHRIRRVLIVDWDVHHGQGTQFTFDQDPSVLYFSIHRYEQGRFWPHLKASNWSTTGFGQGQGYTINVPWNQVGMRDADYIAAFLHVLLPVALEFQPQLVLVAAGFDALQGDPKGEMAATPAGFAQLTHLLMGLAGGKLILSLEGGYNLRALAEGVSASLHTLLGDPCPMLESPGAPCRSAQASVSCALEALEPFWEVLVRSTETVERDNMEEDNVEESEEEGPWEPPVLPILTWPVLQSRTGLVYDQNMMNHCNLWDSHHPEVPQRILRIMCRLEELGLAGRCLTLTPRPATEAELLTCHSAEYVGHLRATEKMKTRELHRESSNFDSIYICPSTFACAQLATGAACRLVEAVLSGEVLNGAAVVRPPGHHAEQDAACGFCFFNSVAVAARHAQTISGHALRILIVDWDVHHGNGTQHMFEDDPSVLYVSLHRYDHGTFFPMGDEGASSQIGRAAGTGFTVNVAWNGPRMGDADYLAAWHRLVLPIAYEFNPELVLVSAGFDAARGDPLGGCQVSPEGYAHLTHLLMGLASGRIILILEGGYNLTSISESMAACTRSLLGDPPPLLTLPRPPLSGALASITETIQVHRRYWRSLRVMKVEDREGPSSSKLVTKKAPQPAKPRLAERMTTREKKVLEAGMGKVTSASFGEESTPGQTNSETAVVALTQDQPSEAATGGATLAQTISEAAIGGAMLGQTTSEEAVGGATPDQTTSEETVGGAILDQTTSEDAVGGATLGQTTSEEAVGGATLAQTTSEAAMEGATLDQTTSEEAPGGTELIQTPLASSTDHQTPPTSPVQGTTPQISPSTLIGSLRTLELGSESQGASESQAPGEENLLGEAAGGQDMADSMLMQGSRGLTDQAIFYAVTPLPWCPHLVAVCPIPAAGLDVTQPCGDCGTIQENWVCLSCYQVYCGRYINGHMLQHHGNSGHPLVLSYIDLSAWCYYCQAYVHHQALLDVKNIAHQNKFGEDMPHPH

Histone deacetylase 2 = Histone deacetylase 2 (Homo sapiens, UniProt Q92769); assay: Inhibition of recombinant human HDAC2 using Boc-Lys(Ac)-AMC as substrate preincubated for 15 mins followed by substrate addition measured after 60 mins by fluorescence-based assay
Chain of Histone deacetylase 2 (Q92769 whole entry): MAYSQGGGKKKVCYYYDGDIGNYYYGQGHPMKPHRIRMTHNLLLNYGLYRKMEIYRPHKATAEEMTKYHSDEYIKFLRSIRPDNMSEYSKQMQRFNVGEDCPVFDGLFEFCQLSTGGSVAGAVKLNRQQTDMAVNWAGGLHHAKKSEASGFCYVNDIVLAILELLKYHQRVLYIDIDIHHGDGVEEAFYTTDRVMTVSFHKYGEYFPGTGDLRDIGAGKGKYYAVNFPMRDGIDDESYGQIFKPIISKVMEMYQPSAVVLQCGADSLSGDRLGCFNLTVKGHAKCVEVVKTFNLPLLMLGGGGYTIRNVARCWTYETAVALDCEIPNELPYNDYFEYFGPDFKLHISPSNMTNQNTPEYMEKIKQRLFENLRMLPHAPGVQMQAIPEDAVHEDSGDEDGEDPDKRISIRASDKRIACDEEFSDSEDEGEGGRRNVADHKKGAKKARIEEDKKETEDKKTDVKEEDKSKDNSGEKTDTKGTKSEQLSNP

Histone deacetylase 3 = Histone deacetylase 3 (Homo sapiens, UniProt O15379); assay: Inhibition of recombinant human HDAC3 using Boc-Lys(Ac)-AMC as substrate preincubated for 15 mins followed by substrate addition measured after 60 mins by fluorescence-based assay
Chain of Histone deacetylase 3 (O15379 whole entry): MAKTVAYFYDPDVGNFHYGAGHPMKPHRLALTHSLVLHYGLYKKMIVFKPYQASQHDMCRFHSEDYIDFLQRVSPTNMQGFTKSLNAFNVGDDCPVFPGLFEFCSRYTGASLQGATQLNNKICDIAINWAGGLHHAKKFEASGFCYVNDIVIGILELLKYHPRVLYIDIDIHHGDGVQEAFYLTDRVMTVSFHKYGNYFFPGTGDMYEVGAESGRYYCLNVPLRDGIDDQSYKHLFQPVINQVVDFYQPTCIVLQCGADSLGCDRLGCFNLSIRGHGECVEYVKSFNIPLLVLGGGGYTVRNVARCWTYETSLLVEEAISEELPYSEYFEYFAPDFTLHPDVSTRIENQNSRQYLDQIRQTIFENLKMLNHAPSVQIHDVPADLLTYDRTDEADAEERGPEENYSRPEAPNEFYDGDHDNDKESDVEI

Histone deacetylase 8 = biological target: T3, Histone deacetylase 8 (Homo sapiens, UniProt Q9BY41); assay: Inhibition of recombinant human HDAC8 using Boc-Lys(TFA)-AMC as substrate preincubated for 15 mins followed by substrate addition measured after 60 mins by fluorescence-based assay
T3 sequence (Q9BY41 whole entry): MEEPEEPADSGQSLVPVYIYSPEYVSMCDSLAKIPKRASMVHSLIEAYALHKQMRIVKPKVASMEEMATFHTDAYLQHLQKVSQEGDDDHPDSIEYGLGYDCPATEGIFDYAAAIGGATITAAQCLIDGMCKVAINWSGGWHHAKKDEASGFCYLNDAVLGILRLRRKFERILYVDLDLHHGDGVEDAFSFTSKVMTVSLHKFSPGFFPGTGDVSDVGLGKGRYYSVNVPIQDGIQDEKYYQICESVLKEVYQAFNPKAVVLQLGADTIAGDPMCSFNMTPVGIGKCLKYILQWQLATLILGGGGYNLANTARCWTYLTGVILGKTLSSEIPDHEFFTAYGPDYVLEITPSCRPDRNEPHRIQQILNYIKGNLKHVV

Histone deacetylase 4 = Histone deacetylase 4 (Homo sapiens, UniProt P56524); assay: Inhibition of recombinant human HDAC4 using Boc-Lys(TFA)-AMC as substrate preincubated for 15 mins followed by substrate addition measured after 60 mins by fluorescence-based assay
Chain of Histone deacetylase 4 (P56524 whole entry): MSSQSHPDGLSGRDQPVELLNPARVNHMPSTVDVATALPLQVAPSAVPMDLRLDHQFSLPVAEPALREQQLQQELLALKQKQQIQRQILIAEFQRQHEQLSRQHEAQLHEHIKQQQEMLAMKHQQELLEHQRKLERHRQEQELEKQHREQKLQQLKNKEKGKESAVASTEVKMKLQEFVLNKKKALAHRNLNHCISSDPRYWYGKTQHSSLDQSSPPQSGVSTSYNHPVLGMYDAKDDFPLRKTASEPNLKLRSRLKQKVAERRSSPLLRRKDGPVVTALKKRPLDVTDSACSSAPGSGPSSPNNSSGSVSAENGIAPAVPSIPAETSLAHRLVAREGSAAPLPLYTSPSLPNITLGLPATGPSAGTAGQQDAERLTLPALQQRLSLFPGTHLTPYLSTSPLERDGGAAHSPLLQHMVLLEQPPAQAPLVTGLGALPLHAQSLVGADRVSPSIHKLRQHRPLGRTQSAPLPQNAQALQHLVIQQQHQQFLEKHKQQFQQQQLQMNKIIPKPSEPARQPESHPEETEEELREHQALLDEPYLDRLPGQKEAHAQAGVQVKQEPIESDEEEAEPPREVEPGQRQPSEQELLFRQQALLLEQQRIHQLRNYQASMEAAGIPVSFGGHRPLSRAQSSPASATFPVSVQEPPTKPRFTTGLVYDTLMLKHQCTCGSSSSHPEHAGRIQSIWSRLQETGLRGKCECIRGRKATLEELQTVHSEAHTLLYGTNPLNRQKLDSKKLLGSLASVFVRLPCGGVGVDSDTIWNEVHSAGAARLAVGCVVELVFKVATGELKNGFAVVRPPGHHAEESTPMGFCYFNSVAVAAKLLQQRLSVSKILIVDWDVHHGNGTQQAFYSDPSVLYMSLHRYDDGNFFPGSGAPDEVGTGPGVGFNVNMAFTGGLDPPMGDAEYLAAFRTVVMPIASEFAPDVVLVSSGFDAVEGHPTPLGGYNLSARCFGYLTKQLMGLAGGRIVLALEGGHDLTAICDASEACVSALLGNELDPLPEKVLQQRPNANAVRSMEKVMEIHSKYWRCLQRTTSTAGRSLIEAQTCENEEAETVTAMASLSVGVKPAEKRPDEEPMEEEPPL

Histone deacetylase 11 = biological target: T4, Histone deacetylase 11 (Homo sapiens, UniProt Q96DB2); assay: Inhibition of recombinant human HDAC11 using Boc-Lys(TFA)-AMC as substrate preincubated for 15 mins followed by substrate addition measured after 60 mins by fluorescence-based assay
T4 sequence (Q96DB2 whole entry): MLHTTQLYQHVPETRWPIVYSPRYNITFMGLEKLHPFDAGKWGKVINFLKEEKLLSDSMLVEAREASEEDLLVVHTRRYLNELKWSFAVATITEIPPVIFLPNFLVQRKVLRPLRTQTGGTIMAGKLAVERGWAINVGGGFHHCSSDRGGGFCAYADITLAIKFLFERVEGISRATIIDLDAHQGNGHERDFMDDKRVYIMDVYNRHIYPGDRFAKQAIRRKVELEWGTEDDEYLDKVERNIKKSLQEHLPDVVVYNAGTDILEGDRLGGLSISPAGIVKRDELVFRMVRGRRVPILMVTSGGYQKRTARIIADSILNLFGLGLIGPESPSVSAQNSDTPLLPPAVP

MCF7 = assay: cells; type: functional; settings: Homo sapiens, MCF7, 96 h
Description: Growth inhibition of human MCF7 cells after 96 hrs by MTT assay

cells [3] = type: functional; settings: Homo sapiens, HCT-116, 96 h
Description: Growth inhibition of human HCT116 cells after 96 hrs by MTT assay

HT-29 = assay: Growth inhibition of human HT-29 cells after 96 hrs by MTT assay; type: functional
MDA-MB-231 = assay: cells; type: functional; settings: Homo sapiens, MDA-MB-231, 96 h
Description: Growth inhibition of human MDA-MB-231 cells after 96 hrs by MTT assay

A549 = assay: cells; type: functional; settings: Homo sapiens, A549, 96 h
Description: Growth inhibition of human A549 cells after 96 hrs by MTT assay

cells [4] = type: functional; settings: Homo sapiens, PC-3, 96 h
Description: Growth inhibition of human PC3 cells after 96 hrs by MTT assay

cells [5] = type: functional; settings: Homo sapiens, ASPC1, 96 h
Description: Growth inhibition of human Aspc-1 cells after 96 hrs by MTT assay

[6] = Cytotoxicity against HEK293 cells assessed as growth inhibition after 96 hrs by MTT assay; settings: human
Histone deacetylase 1 [7] = biological target: T1, Histone deacetylase 1; assay: Inhibition of HDAC1 in human HCT116 cells assessed as increase in acetylated histone H3 level after 24 hrs by Western blot analysis; type: cell-based; settings: HCT-116
[8] = biological target: T5, Protein deacetylase HDAC6 (Homo sapiens) (UniProt Q9UBN7); assay: Inhibition of HDAC6 in human HCT116 cells assessed as increase in acetylated tubulin level after 24 hrs by Western blot analysis; type: cell-based; settings: HCT-116
T5 sequence (whole entry): T2 sequence (Q9UBN7 whole entry)

[9] = Antitumor activity against human HCT116 cells xenografted in athymic nude mouse assessed as tumor growth inhibition at 40 mg/kg, ip qd administered for 14 days measured every other day during compound dosing; type: functional; settings: HCT-116, ip, 336 h, read-out: TGI
Mus musculus [10] = assay: Toxicity in athymic nude mouse xenografted with human HCT116 cells assessed as mortality at 40 mg/kg, ip qd administered for 14 days measured every other day during compound dosing; type: organism-based, HCT-116; settings: in vivo, 336 h
Mus musculus [11] = assay: Toxicity in athymic nude mouse xenografted with human HCT116 cells assessed as reduction in body weight at 40 mg/kg, ip qd administered for 14 days measured every other day during compound dosing; type: organism-based, HCT-116; settings: in vivo, 336 h
[12] = Antitumor activity against human HCT116 cells xenografted in athymic nude mouse assessed as tumor growth inhibition at 80 mg/kg, ip qd administered for 14 days measured every other day during compound dosing; type: functional; settings: HCT-116, ip, 336 h, read-out: TGI
Mus musculus [13] = assay: Toxicity in athymic nude mouse xenografted with human HCT116 cells assessed as mortality at 40 to 80 mg/kg, ip qd administered for 14 days measured every other day during compound dosing; type: organism-based, HCT-116; settings: in vivo, 336 h
Mus musculus [14] = assay: Toxicity in athymic nude mouse xenografted with human HCT116 cells assessed as reduction in body weight at 40 to 80 mg/kg, ip qd administered for 14 days measured every other day during compound dosing; type: organism-based, HCT-116; settings: in vivo, 336 h
HCT-116 = assay: Antitumor activity against human HCT116 cells xenografted in ip dosed athymic nude mouse assessed as tumor growth inhibition qd administered for 14 days measured every other day during compound dosing; type: functional, organism-based

Row | GI50 (MCF7) | GI50 (HT-29; Homo sapiens, HT-29, 96 h) | GI50 (MDA-MB-231) | GI50 (A549) | inhibition (Histone deacetylase 1 [7]) | inhibition [8] | Compound | GI50 (cells [3]) | GI50 (cells [4]) | GI50 (cells [5]) | GI50 at 96 h [6] | inhibition in vivo at 40 mg/kg [9] | other results
1 | 11.5 µM | 22 µM | 42.4 µM | 19.3 µM | Dose-dependent effect | Dose-dependent effect | O=C(NCCCCCCS)c1cc(-c2cccnc2)n[nH]1 | 18.1 µM | 9.4 µM | 14.6 µM | > 50 µM |  | IC50 (Histone deacetylase): 0.015 µM; IC50 (Histone deacetylase 1 [1]): 0.052 µM; IC50 [2]: 0.026 µM; IC50 (Histone deacetylase 2): 0.221 µM; IC50 (Histone deacetylase 3): 0.029 µM; IC50 (Histone deacetylase 8): > 10 µM; IC50 (Histone deacetylase 4): > 10 µM; IC50 (Histone deacetylase 11): > 10 µM
2 | 3.79 µM | 5.29 µM | 10.3 µM | 5.31 µM | Dose-dependent effect | Dose-dependent effect | O=C(NCCCCCCSSCCCCCCNC(=O)c1cc(-c2cccnc2)n[nH]1)c1cc(-c2cccnc2)n[nH]1 | 3.03 µM | 1.25 µM | 3.6 µM | 13.5 µM | 28% | 
3 |  |  |  |  |  |  | O=C(CCCCCCC(=O)Nc1ccccc1)NO [VORINOSTAT] |  |  |  |  |  | GI50 (HT-29): 2.88 µM; Activity (Mus musculus [10]): Non-toxic; Activity (Mus musculus [11]): Non-toxic

Row | Compound | GI50 (MCF7) | GI50 (HT-29; Homo sapiens, HT-29, 96 h) | GI50 (MDA-MB-231) | GI50 (A549) | inhibition (Histone deacetylase 1 [7]) | inhibition [8] | GI50 (cells [3]) | GI50 (cells [4]) | GI50 (cells [5]) | GI50 at 96 h [6] | inhibition in vivo at 40 mg/kg [9] | other results
4 | O=C(NCCCCCCSSCCCCCCNC(=O)c1cc(-c2ccncc2)n[nH]1)c1cc(-c2ccncc2)n[nH]1 | 7.15 µM | 6.92 µM | 27.3 µM | 6.07 µM | Dose-dependent effect | Dose-dependent effect | 8.93 µM | 4.74 µM | 25.3 µM | 14.8 µM | 27% | inhibition in vivo at 80 mg/kg [12]: 48%; Activity (Mus musculus [13]): Non-toxic; Activity (Mus musculus [14]): Non-toxic; inhibition (HCT-116): Dose-dependent effect
